Assay results published in PMC12386809, “Phenanthrene Monomers and Dimers from Juncus tenuis with Antiproliferative Activity and Synergistic Effect with Doxorubicin Against Human Colon Cancer Cell Lines” (International Journal of Molecular Sciences, 2025).
Read-outs that look alike come from different tables or passages of the source.

What was measured:
[1] = tested on: COLO 205 (doxorubicin-sensitive) human colonic adenocarcinoma cells; assay: MTT antiproliferative assay, COLO 205; format: cell-based; settings: read-out: IC50 (µM) ± SD COLO 205
Description: (§1) The antiproliferative effects of the isolated phenanthrenes (compounds 1–19) were evaluated using human cancer cell lines, including doxorubicin-sensitive colonic adenocarcinoma COLO 205 and multidrug-resistant colonic adenocarcinoma COLO 320/MDR-LRP (which expresses P-glycoprotein [MDR1] and LRP), as well as non-cancerous human lung fibroblast CCD-19Lu cells. CCD-19Lu was chosen because it is a well-characterized, non-tumorigenic cell line commonly used to assess general cytotoxicity. Moreover, data from the literature support the use of lung fibroblast cell lines—including CCD-19Lu—as normal controls in studies involving colon cancer cells such as Colo 205 and Colo 320 [33]. The thiazolyl blue tetrazolium bromide (MTT) assay was employed to determine the concentration of each compound required to inhibit 50% of the cell viability (IC50), as summarized in Table 3.
(§2) The human colon adenocarcinoma cells—COLO 205 (CCL-222, doxorubicin-sensitive) and COLO 320/MDR-LRP (ATCC-CCL-220.1, multidrug-resistant, expressing P-gp)—were cultured in RPMI 1640 medium supplemented with 10% heat-inactivated fetal bovine serum, 2 mM of L-glutamine, 1 mM of sodium pyruvate, and 100 mM of HEPES. The non-cancerous human lung fibroblast cell line CCD-19Lu was maintained in Eagle’s Minimal Essential Medium (EMEM; containing 4.5 g/L of glucose) supplemented with a non-essential amino acid mixture, selected vitamins, and 10% heat-inactivated fetal bovine serum. All of the cell lines were detached using 0.25% trypsin and 0.02% EDTA for 5 min at 37 °C. The cell lines were obtained from LGC Promochem (Teddington, England).
(§3) Human colonic adenocarcinoma cell lines—doxorubicin-sensitive COLO 205 and multidrug-resistant COLO 320—as well as the non-cancerous human lung fibroblast cell line CCD-19Lu were used to evaluate the effects of the test compounds on cell proliferation. The assays were conducted in 96-well flat-bottomed microtiter plates. Stock solutions of the compounds were prepared in dimethyl sulfoxide (DMSO), with the final DMSO concentration kept below 1% in all samples. The compounds were diluted in 100 µL of the appropriate culture medium. Adherent cells were cultured in EMEM supplemented with 10% heat-inactivated fetal bovine serum and seeded into 96-well plates at a density of 6 × 10^3 cells per 100 µL per well. The cells were allowed to adhere for 24 h at 37 °C in a humidified incubator with 5% CO2. After incubation, the medium was removed and replaced with 100 µL of fresh medium. Serial dilutions of the compounds were prepared in separate plates and added to the cells, starting from a concentration of 100 µM with twofold serial dilutions (final concentration range: 100–0.19 µM). The cells were then incubated for 72 h at 37 °C. At the end of the incubation period, 20 µL of thiazolyl blue tetrazolium bromide (MTT) solution (5 mg/mL, Sigma) was added to each well. After 4 h of incubation at 37 °C, 100 µL of 10% sodium dodecyl sulfate (SDS) in 0.01 M HCl was added to solubilize the formazan crystals, and the plates were incubated overnight at 37 °C. Cell viability was assessed by measuring the optical density (OD) at 540/630 nm using a Multiscan EX ELISA reader (Thermo Labsystems, Cheshire, WA, USA).
(§4) The inhibitory concentration that reduced cell growth by 50% (IC50) was determined from the dose–response curves. The percent inhibition was calculated using the formula100 − ((OD_sample − OD_medium control)/(OD_cell control − OD_medium control)) × 100
(§5) Dose–response curves were generated by plotting the percent inhibition against the logarithm of the compound concentrations and fitted using Prism5 software (Version 6, GraphPad Software Inc., San Diego, CA, USA). The IC50 values were derived from four independent experiments conducted in parallel for each cell line and are reported as the mean values.

[2] = tested on: COLO 320/MDR-LRP multidrug-resistant human colonic adenocarcinoma cells; assay: MTT antiproliferative assay, COLO 320; format: cell-based; settings: COLO 320 (multidrug-resistant), read-out: IC50 (µM) ± SD COLO 320
Description: as §1, §2, §3, §4, §5

[3] = tested on: CCD-19Lu non-cancerous human lung fibroblast cells; assay: MTT antiproliferative assay, CCD-19Lu; format: cell-based; settings: 72 h, CCD-19Lu non-tumorigenic fibroblasts, read-out: IC50 (µM) ± SD CCD-19Lu
Description: as §1, §2, §3, §4, §5

[4] = tested on: multidrug-resistant COLO 320 cells; assay: Drug combination assay with doxorubicin (Chou-Talalay, MTT); format: cell-based, human; settings: for Interaction: interaction with doxorubicin in COLO 320, class from CI; for CI at ED50 (combination index): combination with doxorubicin, COLO 320, 72 h, Chou-Talalay
Description: One promising approach involves the discovery of new bioactive natural products. To explore this, a chemosensitivity assay was conducted to examine the in vitro interactions between the isolated compounds and the antineoplastic agent doxorubicin, a substrate of P-glycoprotein (P-gp). A combination chemotherapy model was applied using human COLO 320 colon carcinoma cells. The combination index (CI), calculated according to the Chou–Talalay method, was used to evaluate drug–drug interactions, classifying them as synergistic (CI < 1), additive (CI = 1), or antagonistic (CI > 1) (Table 4).
The multidrug-resistant COLO 320 cell line was used to perform the drug combination assay. Doxorubicin (2 mg/mL, Teva Pharmaceuticals, Budapest, Hungary) was serially diluted horizontally, starting with 8.6 µM. The resistance modifier was subsequently diluted vertically, with the starting concentration determined based on the IC50 value. Doxorubicin was diluted horizontally in 100 µL, while the resistance modifiers were diluted vertically in 50 µL in the microtiter plate. The compounds and doxorubicin were prepared as separate dilutions. The cells were seeded at a density of 6 × 10^3 cells per well into 100 µL of medium and incubated for 24 h at 37 °C in a 5% CO2 atmosphere prior to treatment. After this period, the culture medium was removed, and 50 µL of fresh medium was added to each well, followed by the addition of 50 µL of the diluted compounds, resulting in a final volume of 200 µL per well. The plates were then incubated for 72 h at 37 °C under 5% CO2. The cell viability was assessed at the end of incubation using the MTT assay, as described previously. Drug interactions were analyzed using CompuSyn software (Version 1.00).
The dose–response curves for individual agents and their combinations were fitted to a linear model based on the median-effect equation to calculate the median effective dose (IC50) and the slope (m). The quality of the fit was evaluated using the linear correlation coefficient (r), and only data with r > 0.90 are reported. The extent of drug interaction was quantified using the combination index (CI), where CI ≈ 1 indicated an additive effect, CI < 1 signified synergy, and CI > 1 denoted antagonism.

[5] = tested on: HT22 cells (mouse hippocampal neuroblastoma cell line); design: method as in doi:10.1007/s11101-018-9561-5, PMID 25794817; settings: 100 µM, 24 h; cited from earlier work

Row | SMILES | IC50 ([1]; Homo sapiens, COLO 205, 72 h) [µM] | IC50 ([2]; Homo sapiens, COLO 320, 72 h) [µM] | IC50 [3] [µM] | IC50 ([1]; 72 h) [µM] | IC50 ([2]; 72 h) [µM] | Interaction [4] | CI at ED50 (combination index) [4] | IC50 ([1]; Homo sapiens, 72 h) [µM] | IC50 ([2]; Homo sapiens, 72 h) [µM] | decrease in MTT reduction [5] [%]
1 | C=Cc1cc(O)cc2ccc3c(c12)C=CC(=O)C3(C)O (stereo not shown) [Compound 1, Tenuin A] | > 100 | > 100 | > 100 | – | – | – | – | – | – | –
2 | C=Cc1cc2c(ccc3c(C)c(O)ccc32)cc1CO [Compound 2, tenuin B] | 48.4 | 38.3 | 96.08 ± 0.82 | 48.4 ± 1.03 | 38.3 ± 1.84 | very strong synergism (CI < 0.1 indicates very strong synergism) | – | – | – | –
3 | C=Cc1cc(O)c(CO)c2c1-c1ccc(O)c(C)c1CC2 [Compound 3, 2,7-dihydroxy-8-hydroxymethyl-1-methyl-5-vinyl-9,10-dihydrophenanthrene] | > 100 | > 100 | 96.8 ± 1.79 | – | – | – | – | – | – | –
4 | C=Cc1cc(O)cc2c1-c1cc(-c3cc4c(c(C)c3O)CCc3cc(O)cc(C(C)OC)c3-4)c(O)c(C)c1CC2 (stereo not shown) [Compound 4, tenuin D] | 7.6 ± 0.13 | 15.7 ± 2.2 | 9.93 ± 0.84 | – | – | synergism (0.3 < CI < 0.7, synergism) | 0.669 | – | – | –
5 | C=Cc1cc(O)cc2c1-c1cc(-c3c(O)cc4c(c3C=C)-c3ccc(O)c(C)c3CC4)c(O)c(C)c1CC2 [Compound 5, 1,1′-dimethyl-5,5′-divinyl-9,9′,10,10′-tetrahydro-[6,3′-biphenanthrene]-2,2′,7,7′-tetraol] | 11.6 | 12 ± 1.58 | 13.8 ± 0.82 | 11.6 ± 0.22 | – | synergism (0.3 < CI < 0.7, synergism) | 0.433 | – | – | –
6 | C=Cc1cc(O)cc2ccc3c(C)c(O)ccc3c12 [Compound 6, dehydroeffusol] | – | – | 58.17 ± 0.51 | – | – | – | 0.266 | 36.7 ± 2.29 | 35.6 ± 3.89 | –
7 | C=Cc1c(C)c(O)cc2ccc3c(C)c(O)ccc3c12 [Compound 7, dehydrojuncusol] | – | – | 42.04 ± 0.39 | – | – | – | 0.117 | 28.16 ± 0.27 | 45.3 ± 2.78 | –
8 | C=Cc1c(CO)ccc2c1ccc1c(C)c(O)ccc12 [Compound 9] | > 100 | 42.6 ± 2.98 | 75.3 ± 2.59 | – | – | moderate antagonism | 1.427 | – | – | –
9 | C=Cc1cc(O)cc2c1-c1ccc(OC)c(C)c1CC2 [Compound 12] | 34.73 ± 0.1 | 25.5 ± 2.05 | 28.7 ± 1.11 | – | – | moderate antagonism | 1.347 | – | – | –
10 | C=Cc1cc(CO)cc2c1-c1ccc(O)c(C)c1CC2 [Compound 13] | 37 ± 3.28 | 35.2 ± 4.68 | 69.3 ± 1.77 | – | – | – | 0.163 | – | – | –
11 | C=Cc1cc(C=O)cc2c1-c1ccc(O)c(C)c1CC2 [Compound 14] | 57.2 ± 3.98 | 39.58 ± 0.27 | 66.4 ± 1.58 | – | – | – | 0.219 | – | – | –
12 | C=Cc1cc(C(=O)O)cc2c1-c1ccc(O)c(C)c1CC2 [Compound 15] | 45.4 ± 2.16 | 47.6 ± 1.01 | > 100 | – | – | antagonism (1.45 < CI < 3.3, antagonism) | 1.927 | – | – | –
13 | C=Cc1c(C)c(O)cc2c1-c1ccc(OC)c(C)c1CC2 [Compound 16, compressin A] | 35.8 ± 2.7 | 19.2 ± 0.32 | 28 ± 2.73 | – | – | antagonism (1.45 < CI < 3.3, antagonism) | 2.312 | – | – | –
14 | C=Cc1cc(O)c(C)c2c1-c1ccc(O)c(C)c1CC2 [Compound 17, 2,7-dihydroxy-1,8-dimethyl-5-vinyl-9,10-dihydrophenanthrene] | 43.2 ± 3.82 | 35.1 ± 1.1 | 64.7 ± 3.36 | – | – | synergism (0.3 < CI < 0.7, synergism) | 0.670 | – | – | –
15 | C=Cc1c(CO)ccc2c1CCc1c-2ccc(O)c1C [Compound 18] | 50.2 ± 0.74 | 31.5 ± 2.65 | 70.8 ± 3.25 | – | – | – | 0.189 | – | – | –
16 | C=Cc1cc(O)cc2c1-c1cc(-c3cc4c(c(C)c3O)CCc3cc(O)cc(C=C)c3-4)c(O)c(C)c1CC2 [Compound 19, effususin A] | 10.9 | 17.3 ± 0.87 | 18.8 ± 0.06 | 10.9 ± 0.51 | – | – | – | – | – | –
17 | COc1cccc2c1C(=O)c1c(O)c3c(c(O)c1C2=O)C[C@@](O)(C(=O)CO)C[C@@H]3O[C@H]1C[C@H](N)[C@H](O)[C@H](C)O1 [doxorubicin] | 0.53 ± 0.05 | 1.72 ± 0.5 | 1.03 ± 0.18 | – | – | – | – | – | – | –
18 | C=Cc1c(C)c(O)cc2c1CCc1c-2ccc(O)c1C [juncuenin B, reference compound] | – | – | – | – | – | – | – | – | – | 13.6
